Data as given in the NIST ThermoML archive (doi:10.1016/j.jct.2011.04.023).
± gives the expanded uncertainty stated by the source.

How the values were obtained:
[1] = Crystal; visual observation
[2] = Molar enthalpy of transition or fusion; conditions: Crystal; DSC

Normal melting temperature [1]: 56.2 ± 0.4 °C
Molar enthalpy of transition or fusion [2]: 2.41 ± 0.0813 kcal/mol
SMILES: CCCCCC[n+]1cccc(C)c1.Cc1ccc(S(=O)(=O)[O-])cc1 [1-hexyl-3-methylpyridinium 4-methylbenzenesulfonate]
